Assay results reported in ChEMBL document CHEMBL1156964, “Bioconjugates of curcumin display improved protection against glutathione depletion mediated oxidative stress in a dopaminergic neuronal cell line: Implications for Parkinson's disease” (2010).
Calls of active or inactive are those of the source. The calls are words filed in the database; no cut-off is given here.

Key:
[1] = Increase in GSH level in rat N27 cells at 0.5 uM after 24 hrs; type: functional
[2] = Neuroprotective effect in rat N27 cells assessed as Inhibition of BSO-induced GSH depletion at 0.5 uM after 24 hrs by DTNB recycling method relative to control; type: functional; details: N27, 24 h
[3] = Neuroprotective effect against rat N27 cells assessed as reduction of BSO-induced increase in MDA level at 0.5 uM after 24 hrs by thiobarbituric acid reaction method relative to control; type: functional; design: scale not given: the % may be the effect or the level left
[4] = Neuroprotective effect against rat N27 cells assessed as reduction of BSO-induced increase in MDA level at 0.5 uM by thiobarbituric acid reaction method after 24 hrs BSO withdrawal relative to control; type: functional; design: scale not given: the % may be the effect or the level left
N27 [5] = assay: Neuroprotective effect against rat N27 cells assessed as reduction of BSO-induced reduction of GST activity at 0.5 uM relative to control; type: functional, cell-based
[6] = Neuroprotective effect against rat N27 cells assessed as reduction of BSO-induced increase in hydrogen peroxide level at 0.5 uM treated 24 hrs after BSO withdrawal using FOX1 reagent relative to control; type: functional; design: scale not given: the % may be the effect or the level left
[7] = Neuroprotective effect against rat N27 cells assessed as reduction of BSO-induced increase in reactive oxygen species level at 0.5 uM after 24 hrs by DCFDA fluorescence assay relative to control; type: functional; design: scale not given: the % may be the effect or the level left
[8] = Neuroprotective effect against rat N27 cells assessed as reduction of BSO-induced increase in reactive oxygen species level at 0.5 uM treated 24 hrs after BSO withdrawal by DCFDA fluorescence assay relative to control; type: functional; design: scale not given: the % may be the effect or the level left
N27 [9] = assay: Increase in ROS level in rat N27 cells at 0.5 uM by DCFDA fluorescence assay; type: functional, cell-based
N27 [10] = assay: Neuroprotective effect against rat N27 cells assessed as reduction of BSO-induced reduction of GST activity at 0.5 uM treated 24 hrs after BSO withdrawal relative to control; type: functional, cell-based
[11] = Neuroprotective effect against rat N27 cells assessed as reduction of BSO-induced increase in hydrogen peroxide level at 0.5 uM after 24 hrs using FOX1 reagent; type: functional; design: scale not given: the % may be the effect or the level left

COc1cc(/C=C/C(=O)CC(=O)/C=C/c2ccc(OC(=O)[C@@H](N)C(C)C)c(OC)c2)ccc1OC(=O)[C@@H](N)C(C)C
Activity [1]: 50%
inhibition at 0.5 µM [2]: 72%
Activity [3]: 30%
Activity [4]: 80%
Activity (N27 [5]): Active
Activity [6]: 80%
Activity [7]: 60%
Activity [8]: 70%
Activity (N27 [9]): inactive
Activity (N27 [10]): Active

COc1cc(/C=C/C(=O)CC(=O)/C=C/c2ccc(OC(=O)/C=C/C=C/c3ccc(O)c(O)c3)c(OC)c2)ccc1OC(=O)/C=C/C=C/c1ccc(O)c(O)c1
Activity [1]: 25%
inhibition at 0.5 µM [2]: 78%
Activity [3]: 50%
Activity [4]: 75%
Activity (N27 [5]): Active
Activity [11]: 50%
Activity [7]: 65%
Activity [8]: 55%
Activity (N27 [9]): inactive
Activity (N27 [10]): Active

COc1cc(/C=C/C(=O)CC(=O)/C=C/c2ccc(OC(=O)[C@@H](N)CCC(=O)O)c(OC)c2)ccc1OC(=O)[C@@H](N)CCC(=O)O
Activity [1]: 64%
inhibition at 0.5 µM [2]: 83%
Activity [3]: 50%
Activity [4]: 90%
Activity (N27 [5]): Active
Activity [11]: 50%
Activity [7]: 90%
Activity [8]: 80%
Activity (N27 [9]): inactive
Activity (N27 [10]): Active

COc1cc(/C=C/C(=O)CC(=O)/C=C/c2ccc(O)c(OC)c2)ccc1O [CURCUMIN]
Activity [1]: 30%
inhibition at 0.5 µM [2]: 78%
Activity [3]: 40%
Activity [4]: 65%
Activity (N27 [5]): Active
Activity [11]: 50%
Activity [7]: 45%
Activity [8]: 50%
Activity (N27 [9]): inactive
Activity (N27 [10]): Active
